Measured values reported in patent US20160159774A1 (Celgene Avilomics Research, Inc., priority 2014, published 2016).

Experiments:
[1] = target: T1, BTK in Ramos human Burkitt lymphoma cells (Homo sapiens, UniProt Q06187); experiment: BTK Ramos cellular assay (BTK occupancy); format: cell-based; details: concentration producing 50% occupancy of BTK, 1 hour incubation with compound
T1 construct: Compounds of this invention were assayed in Ramos human Burkitt lymphoma cells; endogenous in cells; host or cells: Ramos human Burkitt lymphoma cells
Method: BTK activity in Ramos cells, in the presence of a compound of the invention, can be measured by 3 different methods: 1) inhibition of autophosphorylation of BTK; 2) inhibition of phosphorylation of the immediate BTK surrogate PLCγ2; and 3) BTK occupancy. […] In this instance, BTK occupancy was chosen and is described below.
Compounds of this invention were assayed in Ramos human Burkitt lymphoma cells. Ramos cells were grown in suspension in T175 flasks, spun down, resuspended to a concentration of 2×10^6 cells per mL in serum-free media and incubated for 1 hour. Compound was added to Ramos cells to a final concentration of 500, 166.7, 55.6, 18.5, 6.2, 2.1, and 0.7 nM. Ramos cells were incubated with compound for 1 hour, washed with PBS and lysed in 1004 of BioRad lysis Buffer. Cell lysates were incubated with a biotinylated covalent probe (compound 1-215 disclosed in U.S. published application number 2010/0029610, incorporated by reference in its entirety) at a final concentration of 1 μM in a PBS, 0.05% Tween-20, 1% BSA solution for 1 h at room temperature. Standards and samples were transferred to a streptavidin-coated 96-well ELISA plate and mixed while shaking for 1 h at room temperature. The α-Btk antibody (BD 611116, 1:1000 dilution in PBS+0.05% Tween-20+0.5% BSA) was then added and incubated for 1 h at room temperature. After wash, goat α-mouse-HRP (1:5000 dilution in PBS+0.05% Tween-20+0.5% BSA) was added and incubated for 1 h at room temperature. The ELISA was developed with addition of tetramethyl benzidine (TMB) followed by Stop Solution and read at OD 450 nm. The standard curve (11.7-3000 pg/μL) was generated with human full-length recombinant Btk protein and plotted using a 4 parameter curve fit in Gen5 software. Uninhibited Btk detected from samples was normalized to μg total protein as determined by BCA protein analysis (Pierce Cat. 23225).
The results of this assay show the concentration of compound producing 50% occupancy of BTK. This level of occupancy empirically translates to a level of 50% inhibition of BTK activity (both as measured by autophosphorylation and by phosphorylation of PLCγ2). […] The compound numbers correspond to the compound numbers in the examples.

activated BTK enzyme = target: T2, activated BTK enzyme (Homo sapiens, UniProt Q06187); experiment: Omnia assay for potency assessment against BTK; format: biochemical; details: BTK inhibition assay; [BTK]=5 nM, [ATP]=40 μM, [Y5-Sox]=10 μM
T2 construct: purchased Life Technologies PV3363
Description: Omnia Assay Protocol for Potency Assessment Against BTK
The protocol below describes an assay to measure potency of compounds against the activated BTK enzyme. The mechanics of the assay platform are best described by the vendor (Life Technologies, Carlsbad, Calif.) on their website at the following URLs: www.lifetechnologies.com/us/en/home/life-science/drug-discovery/target-and-lead-identification-and-validation/kinasebiology/kinase-activity-assays/omnia-kinase-assays/omnia-kinase-principle.html and tools.lifetechnologies.com/content/sfs/manuals/omnia_kinase_assay_man.pdf
Briefly, 10× stocks of BTK (PV3363) from Life Technologies, 1.13×ATP (AS00lA) and Sox conjugated peptide substrates, Y5-Sox, (KZN305l) were prepared in 1× kinase reaction buffer consisting of 20 mM Tris, pH 7.5, 5 mM MgCl2, 1 mM EGTA, 5 mM (3-glycerophosphate, 5% glycerol (10× stock, KB002A) and 0.2 mM DTT (DS00lA). 5 μL of each enzyme were pre-incubated in a Corning (#3574) 384-well, white, non-binding surface microtiter plate (Corning, N.Y.) for 30 min. at room temperature with a 0.5 μL volume of 50% DMSO or serially diluted compounds prepared in 50% DMSO. Kinase reactions were started with the addition of […] of the ATP/Tyr-Sox peptide substrate Y5 mix and monitored every 71 seconds for 60 minutes at λex360/λem485 in a Synergy4 plate reader from BioTek (Winooski, Vt.). At the conclusion of each assay, progress curves from each well were examined for linear reaction kinetics and fit statistics (R2, 95% confidence interval, absolute sum of squares). Initial velocity (0 minutes to ˜30 minutes) from each reaction was determined from the slope of a plot of relative fluorescence units vs time (minutes) and then plotted against inhibitor concentration to estimate IC50 from log [Inhibitor] vs Response, Variable Slope model in GraphPad Prism from GraphPad Software (San Diego, Calif.).
Reagent conditions for the assay are:
[BTK]=5 nM, [ATP]=40 μM, [Y5-Sox]=10 μM (ATP KMapp˜36 μM).
The compound numbers correspond to the compound numbers in the examples.

T1 sequence (Q06187 whole entry): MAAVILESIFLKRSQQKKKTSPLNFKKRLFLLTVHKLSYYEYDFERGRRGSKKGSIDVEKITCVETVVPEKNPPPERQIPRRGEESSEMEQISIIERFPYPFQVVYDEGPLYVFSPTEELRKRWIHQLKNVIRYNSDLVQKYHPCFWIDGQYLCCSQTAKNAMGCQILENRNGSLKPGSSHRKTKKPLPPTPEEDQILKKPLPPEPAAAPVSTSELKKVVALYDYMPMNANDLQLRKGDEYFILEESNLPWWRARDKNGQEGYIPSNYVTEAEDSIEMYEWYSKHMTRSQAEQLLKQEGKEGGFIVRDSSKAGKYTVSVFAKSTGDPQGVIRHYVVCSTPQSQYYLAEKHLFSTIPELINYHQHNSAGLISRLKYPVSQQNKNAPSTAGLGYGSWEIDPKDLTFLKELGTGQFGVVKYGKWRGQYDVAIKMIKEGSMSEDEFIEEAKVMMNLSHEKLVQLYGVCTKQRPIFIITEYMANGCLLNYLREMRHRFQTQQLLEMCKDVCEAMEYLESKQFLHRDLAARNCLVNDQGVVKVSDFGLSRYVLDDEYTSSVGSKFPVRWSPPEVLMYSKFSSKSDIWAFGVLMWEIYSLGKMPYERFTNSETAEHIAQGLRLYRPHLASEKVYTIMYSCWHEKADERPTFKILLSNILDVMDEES
T2 sequence (Q06187 whole entry): as above

Row | EC50 [1] | IC50 (activated BTK enzyme) | Compound
1 | < 10 nM | < 10 nM | C=CC(=O)N1CCC[C@@H](Nc2nc(Nc3ccc4c(c3)CNCC4)ncc2F)C1 [Compound I-33, (R)-1-(3-(5-fluoro-2-(1,2,3,4-tetrahydroisoquinolin-7-ylamino)pyrimidin-4-ylamino)-piperidin-1-yl)prop-2-en-1-one]
2 | < 10 nM | < 10 nM | C=CC(=O)N1CCC[C@@H](Nc2nc(Nc3ccc4c(c3)CN(C)CC4)ncc2F)C1 [Compound I-34, (R)-1-(3-((5-Fluoro-2-((2-methyl-1,2,3,4-tetrahydroisoquinolin-7-yl)amino)-pyrimidin-4-yl)amino)piperidin-1-yl)prop-2-en-1-one]
3 | < 10 nM | < 10 nM | C=CC(=O)N1CCC[C@@H](Nc2nc(Nc3ccc4c(c3)CN(C3COC3)CC4)ncc2F)C1 [Compound I-35, (R)-1-(3-(5-Fluoro-2-(2-(oxetan-3-yl)-1,2,3,4-tetrahydroisoquinolin-7-ylamino)-pyrimidin-4-ylamino)piperidin-1-yl)prop-2-en-1-one]
4 | < 10 nM | < 10 nM | C=CC(=O)N1CCC[C@@H](Nc2nc(Nc3ccc4c(c3)CN(CC3COC3)CC4)ncc2F)C1 [Compound I-36, (R)-1-(3-(5-Fluoro-2-(2-(oxetan-3-ylmethyl)-1,2,3,4-tetrahydroisoquinolin-7-ylamino)pyrimidin-4-ylamino)piperidin-1-yl)prop-2-en-1-one]
5 | 101 to 1000 nM | < 10 nM | C=CC(=O)N1CCC[C@@H](Nc2nc(Nc3cc(F)c4c(c3)CN(C)C4)ncc2F)C1 [Compound I-37, (R)-1-(3-(5-Fluoro-2-(7-fluoro-2-methylisoindolin-5-ylamino)pyrimidin-4-ylamino)piperidin-1-yl)prop-2-en-1-one]
6 | < 10 nM | < 10 nM | C=CC(=O)N1CCC[C@@H](Nc2nc(Nc3ccc4c(c3)CCCN(C)C4)ncc2F)C1 [Compound I-38, (R)-1-(3-((5-Fluoro-2-((2-methyl-2,3,4,5-tetrahydro-1H-benzo[c]azepin-7-yl)amino)pyrimidin-4-yl)amino)piperidin-1-yl)prop-2-en-1-one]
7 | 10 to 100 nM | < 10 nM | C=CC(=O)N1CCC[C@@H](Nc2nc(Nc3ccc4c(c3)CN(CCF)C4)ncc2F)C1 [Compound I-39, (R)-1-(3-((5-Fluoro-2-((2-(2-fluoroethyl)isoindolin-5-yl)amino)pyrimidin-4-yl)amino)piperidin-1-yl)prop-2-en-1-one]
8 | < 10 nM | < 10 nM | C=CC(=O)N1CCC[C@@H](Nc2nc(Nc3ccc4c(c3)CN(C3(C)CCOCC3)C4)ncc2F)C1 [Compound I-40, (R)-1-(3-(5-Fluoro-2-(2-(4-methyltetrahydro-2H-pyran-4-yl)isoindolin-5-ylamino)pyrimidin-4-ylamino)piperidin-1-yl)prop-2-en-1-one]
9 | 10 to 100 nM | < 10 nM | C=CC(=O)N1CCC[C@@H](Nc2nc(Nc3ccc4c(c3)C(C)(C)N(C)C4(C)C)ncc2F)C1 [Compound I-41, (R)-1-(3-(5-Fluoro-2-(1,1,2,3,3-pentamethylisoindolin-5-ylamino)pyrimidin-4-ylamino)piperidin-1-yl)prop-2-en-1-one]
10 | < 10 nM | < 10 nM | C=CC(=O)N1CCC[C@@H](Nc2nc(Nc3ccc4c(c3)CCN(C3CCC3)C4)ncc2F)C1 [Compound I-42, (R)-1-(3-((2-((2-cyclobutyl-1,2,3,4-tetrahydroisoquinolin-6-yl)amino)-5-fluoropyrimidin-4-yl)amino)piperidin-1-yl)prop-2-en-1-one]
11 | < 10 nM | < 10 nM | C=CC(=O)N1CCC[C@@H](Nc2nc(Nc3ccc4c(c3)CCN(CC3CC3)C4)ncc2F)C1 [Compound I-43, (R)-1-(3-((2-((2-(cyclopropylmethyl)-1,2,3,4-tetrahydroisoquinolin-6-yl)amino)-5-fluoropyrimidin-4-yl)amino)piperidin-1-yl)prop-2-en-1-one]
12 | 10 to 100 nM | < 10 nM | C=CC(=O)N1CCC[C@@H](Nc2nc(Nc3ccc4c(c3)CCN(C3CC3)C4)ncc2F)C1 [Compound I-44, (R)-1-(3-((2-((2-Cyclopropyl-1,2,3,4-tetrahydroisoquinolin-6-yl)amino)-5-fluoropyrimidin-4-yl)amino)piperidin-1-yl)prop-2-en-1-one]
13 | < 10 nM | < 10 nM | C=CC(=O)N1CCC[C@@H](Nc2nc(Nc3ccc4c(c3)CCN(C(C)(C)C)C4)ncc2F)C1 [Compound I-45, (R)-1-(3-((2-((2-(tert-Butyl)-1,2,3,4-tetrahydroisoquinolin-6-yl)amino)-5-fluoropyrimidin-4-yl)amino)piperidin-1-yl)prop-2-en-1-one]
14 | < 10 nM | < 10 nM | C=CC(=O)N1CCC[C@@H](Nc2nc(Nc3ccc4c(c3)CN(C3CCC3)CC4)ncc2F)C1 [Compound I-46, (R)-1-(3-(2-(2-Cyclobutyl-1,2,3,4-tetrahydroisoquinolin-7-ylamino)-5-fluoropyrimidin-4-ylamino)piperidin-1-yl)prop-2-en-1-one]
15 | 10 to 100 nM | < 10 nM | C=CC(=O)N1CCC[C@@H](Nc2nc(Nc3ccc4c(c3)CCCN(CC3COC3)C4)ncc2F)C1 [Compound I-50, (R)-1-(3-((5-Fluoro-2-((2-(oxetan-3-ylmethyl)-2,3,4,5-tetrahydro-1H-benzo[c]azepin-7-yl)amino)pyrimidin-4-yl)amino)piperidin-1-yl)prop-2-en-1-one]
16 | 10 to 100 nM | < 10 nM | C=CC(=O)N1CCC[C@@H](Nc2nc(Nc3ccc4c(c3)CCCN(C3CC3)C4)ncc2F)C1 [Compound I-51, (R)-1-(3-((2-((2-Cyclopropyl-2,3,4,5-tetrahydro-1H-benzo[c]azepin-7-yl)amino)-5-fluoropyrimidin-4-yl)amino)piperidin-1-yl)prop-2-en-1-one]
17 | 10 to 100 nM | < 10 nM | C=CC(=O)N1CCC[C@@H](Nc2nc(Nc3ccc4c(c3)CCCN(C)C4=O)ncc2F)C1 [Compound I-52, (R)-7-((4-((1-Acryloylpiperidin-3-yl)amino)-5-fluoropyrimidin-2-yl)amino)-2-methyl-2,3,4,5-tetrahydro-1H-benzo[c]azepin-1-one]
18 | < 10 nM | < 10 nM | C=CC(=O)N1CCC[C@@H](Nc2nc(Nc3ccc4c(c3)CNCCC4)ncc2F)C1 [Compound I-53, (R)-1-(3-(5-Fluoro-2-(2,3,4,5-tetrahydro-1H-benzo[c]azepin-8-ylamino)pyrimidin-4-ylamino)piperidin-1-yl)prop-2-en-1-one]
19 | 10 to 100 nM | < 10 nM | C=CC(=O)N1CCC[C@@H](Nc2nc(Nc3ccc4c(c3)CN(C)CCC4)ncc2F)C1 [Compound I-55, (R)-1-(3-(5-Fluoro-2-(2-methyl-2,3,4,5-tetrahydro-1H-benzo[c]azepin-8-ylamino)pyrimidin-4-ylamino)piperidin-1-yl)prop-2-en-1-one]
